Test results: patent US8614213B2 (Novartis AG, priority 2008, dated 2013)

molecular target: human recombinant CRF-1 receptor (Homo sapiens (Human), UniProt P34998); assay: CRF-1 receptor antagonism, HTRF cAMP assay in CHO cells in the presence of 1 nM CRF; format: cell-based; conditions: CHO cells expressing human recombinant CRF-1
Description: The CRF-1 or CRF-2a receptor antagonistic activity of the agents of the invention has been determined in vitro in the following assay:
Chinese hamster ovary (CHO) cells expressing either the human recombinant CRF-1 or CRF-2a receptors (Chen et al., Proc Natl Acad Sci USA 90, 8967-8971, 1993; Liaw et al., Endocrinology 137, 72-77, 1996) are propagated in Dulbecco's modified Eagle medium supplemented with 10% foetal calf serum, non-essential amino acids, 100 U/ml penicillin, 100 mg/l streptomycin and 1 g/l geneticin (G418). For cyclic AMP determinations the Homogeneous Time-Resolved Fluoresce (HTRF) cAMP dynamic 2 kit (Cisbio International, France) was used as per manufacturers' instructions. CHO cells, previously cryopreserved, were thawed, centrifuged for 7 mins at 1200 rpm and resuspended in serum free media, then pipetted out onto clear bottomed black tissue culture treated 384-well microtitre plates (Corning Inc, US) at 2,000 cells per well. Compounds of the invention, prepared in DMSO, and subsequently diluted 50 fold in assay buffer (1× Hanks balanced salt solution, 0.2% (w/v) bovine serum albumin, 1.7 mM isobutylmethylxanthine and 10 mM Hepes, pH7.4) are then added onto the cell containing plate where a further 2 fold dilution is performed and incubated for 15 min. Following incubation, buffer containing a 5 times final concentration of agonist is added to the plate and incubated for 30 min. Finally, d2 dye labelled cAMP and cryptate labeled anti-cAMP antibody, both made in lysis buffer, are added to the plate followed by a settling period of 1 hour. During the settling period cAMP produced by the cells competes with the d2 labelled cAMP for the anti-cAMP cryptate. The plate is read on the Pherastar (BMG, Germany). […] Values represented by a change in arbitrary fluorescence units are converted into cAMP concentrations by use of a standard curve the reagents for which are supplied with the kit. […] IC50 values of antagonists are calculated by fitting the percent inhibition of the effect of CRF by increasing concentrations of the antagonists. […]

Sequence of human recombinant CRF-1 receptor (P34998 24-415): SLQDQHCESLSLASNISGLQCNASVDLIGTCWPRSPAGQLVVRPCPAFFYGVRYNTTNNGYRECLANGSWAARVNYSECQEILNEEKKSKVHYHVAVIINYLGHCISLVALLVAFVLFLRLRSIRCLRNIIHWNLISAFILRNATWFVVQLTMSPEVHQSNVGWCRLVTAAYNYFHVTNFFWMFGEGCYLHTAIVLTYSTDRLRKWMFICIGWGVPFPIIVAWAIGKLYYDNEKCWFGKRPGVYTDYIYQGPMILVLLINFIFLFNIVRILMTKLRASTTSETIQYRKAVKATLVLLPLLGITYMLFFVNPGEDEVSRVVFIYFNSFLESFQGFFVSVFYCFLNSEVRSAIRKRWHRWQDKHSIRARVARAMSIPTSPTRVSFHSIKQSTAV

Compound	IC50
2-Chloro-N-(2RS-methyl-4-phenylaminomethyl-cyclohexyl)-5-trifluoromethyl-benzamide [Example 16]	51 nM
Cc1cc(N2CCNC2=O)nn1C[C@H]1CC[C@H](NC(=O)c2cc(C(F)(F)F)ccc2Cl)CC1 [Example 21.5, 2-Chloro-N-{4-[5-methyl-3-(2-oxo-imi-dazolidin-1-yl)-pyrazol-1-ylmethyl]-cyclohexyl}-5-trifluoromethyl-ben zamide]	157 nM
Cc1nn(C[C@H]2CC[C@H](NC(=O)c3cc(C(F)(F)F)ccc3Cl)CC2)c(C)c1C [Example 21.11]	140 nM
